Measured values from PubChem BioAssay (NCI).
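Values below derive from 48-hour exposures of cells grown in 96-well plates, with endpoints linearly interpolated between the two concentrations bracketing the appropriate inhibition level. Definition used: TGI = concentration required for complete inhibition of growth.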

Key:
Experiment in all cases: NCI tumour cell line growth inhibition, 48 h
[1] = test system: A498 renal
[2] = test system: A549 NSCLC
[3] = test system: HOP-62 NSCLC
[4] = test system: MCF7 breast
[5] = test system: SF-268 CNS
[6] = test system: HCT-116 colon
[7] = test system: OVCAR-4 ovarian
[8] = test system: HCC-2998 colon
[9] = test system: SF-539 CNS
[10] = test system: KM12 colon
[11] = test system: OVCAR-3 ovarian
[12] = test system: 786-0 renal
[13] = test system: SK-MEL-28 melanoma
[14] = test system: DU-145 prostate
[15] = test system: SR leukemia
[16] = test system: SW-620 colon
[17] = test system: LOX IMVI melanoma
[18] = test system: CAKI-1 renal
[19] = test system: T-47D breast
[20] = test system: MALME-3M melanoma
[21] = test system: COLO 205 colon
[22] = test system: SK-OV-3 ovarian
[23] = test system: SF-295 CNS
[24] = test system: SNB-19 CNS
[25] = test system: SK-MEL-5 melanoma
[26] = test system: UACC-257 melanoma
[27] = test system: NCI-H460 lung
[28] = test system: HS 578T breast
[29] = test system: UACC-62 melanoma
[30] = test system: SNB-75 CNS
[31] = test system: U251 CNS
[32] = test system: NCI-H23 lung
[33] = test system: HCT-15 colon
[34] = test system: HL-60(TB) leukemia
[35] = test system: RPMI-8226 leukemia
[36] = test system: OVCAR-5 ovarian
[37] = test system: EKVX NSCLC
[38] = test system: UO-31 renal
[39] = test system: PC-3 prostate
[40] = test system: OVCAR-8 ovarian
[41] = test system: MDA-N
[42] = test system: MDA-MB-435
[43] = test system: MDA-MB-231 breast
[44] = test system: MOLT-4 leukemia
[45] = test system: M14 melanoma
[46] = test system: HT29 colon
[47] = test system: ACHN renal
[48] = test system: SN12C renal
[49] = test system: RXF 393 renal
[50] = test system: CCRF-CEM leukemia
[51] = test system: TK-10 renal
[52] = test system: IGROV1 ovarian
[53] = test system: K-562 leukemia
[54] = test system: HOP-92 NSCLC
[55] = test system: NCI/ADR-RES ovarian
[56] = test system: NCI-H522 lung
[57] = test system: BT-549 breast
[58] = test system: SK-MEL-2 melanoma
[59] = test system: NCI-H226 lung

c1cc(CSc2ncnc3nc[nH]c23)ccn1
TGI [1]: > 100 µM | TGI [2]: > 100 µM | TGI [3]: > 100 µM | TGI [4]: > 100 µM | TGI [5]: > 100 µM | TGI [6]: > 100 µM | TGI [7]: > 100 µM | TGI [8]: > 100 µM | TGI [9]: > 100 µM | TGI [10]: > 100 µM | TGI [11]: > 100 µM | TGI [12]: > 100 µM | TGI [13]: > 100 µM | TGI [14]: > 100 µM | TGI [15]: > 100 µM | TGI [16]: > 100 µM | TGI [17]: > 100 µM | TGI [18]: > 100 µM | TGI [19]: > 100 µM | TGI [20]: > 100 µM | TGI [21]: > 100 µM | TGI [22]: > 100 µM | TGI [23]: > 100 µM | TGI [24]: > 100 µM | TGI [25]: > 100 µM | TGI [26]: > 100 µM | TGI [27]: > 100 µM | TGI [28]: > 100 µM | TGI [29]: > 100 µM | TGI [30]: > 100 µM | TGI [31]: > 100 µM | TGI [32]: > 100 µM | TGI [33]: > 100 µM | TGI [34]: > 100 µM | TGI [35]: > 100 µM | TGI [36]: > 100 µM | TGI [37]: > 100 µM | TGI [38]: > 100 µM | TGI [39]: > 100 µM | TGI [40]: > 100 µM | TGI [41]: > 100 µM | TGI [42]: > 100 µM | TGI [43]: > 100 µM | TGI [44]: > 100 µM | TGI [45]: > 100 µM | TGI [46]: > 100 µM | TGI [47]: > 100 µM | TGI [48]: > 100 µM | TGI [49]: > 100 µM | TGI [50]: > 100 µM | TGI [51]: > 100 µM | TGI [52]: > 100 µM | TGI [53]: > 100 µM | TGI [54]: > 100 µM | TGI [55]: > 100 µM | TGI [56]: > 100 µM | TGI [57]: > 100 µM | TGI [58]: > 100 µM | TGI [59]: > 100 µM

CON[N+]([O-])=NC(C)C
TGI [1]: > 100 µM | TGI [2]: > 100 µM | TGI [3]: > 100 µM | TGI [4]: > 100 µM | TGI [5]: > 100 µM | TGI [6]: > 100 µM | TGI [7]: > 100 µM | TGI [8]: > 100 µM | TGI [9]: > 100 µM | TGI [10]: > 100 µM | TGI [11]: > 100 µM | TGI [12]: > 100 µM | TGI [13]: > 100 µM | TGI [14]: > 100 µM | TGI [15]: > 100 µM | TGI [16]: > 100 µM | TGI [17]: > 100 µM | TGI [18]: > 100 µM | TGI [19]: > 100 µM | TGI [20]: > 100 µM | TGI [21]: > 100 µM | TGI [22]: > 100 µM | TGI [23]: > 100 µM | TGI [24]: > 100 µM | TGI [25]: > 100 µM | TGI [26]: > 100 µM | TGI [27]: > 100 µM | TGI [28]: > 100 µM | TGI [29]: > 100 µM | TGI [30]: > 100 µM | TGI [31]: > 100 µM | TGI [32]: > 100 µM | TGI [33]: > 100 µM | TGI [34]: > 100 µM | TGI [35]: > 100 µM | TGI [36]: > 100 µM | TGI [37]: > 100 µM | TGI [38]: > 100 µM | TGI [39]: > 100 µM | TGI [40]: > 100 µM | TGI [41]: > 100 µM | TGI [42]: > 100 µM | TGI [43]: > 100 µM | TGI [44]: > 100 µM | TGI [45]: > 100 µM | TGI [46]: > 100 µM | TGI [47]: > 100 µM | TGI [48]: > 100 µM | TGI [49]: > 100 µM | TGI [50]: > 100 µM | TGI [51]: > 100 µM | TGI [52]: > 100 µM | TGI [53]: > 100 µM | TGI [54]: > 100 µM | TGI [55]: > 100 µM | TGI [56]: > 100 µM | TGI [57]: > 100 µM | TGI [58]: > 100 µM | TGI [59]: > 100 µM

O=C(Nc1ccc(Cl)cc1)c1cc(S(=O)(=O)N2CCNNC2=O)c(S)cc1Cl
TGI [1]: > 100 µM | TGI [2]: > 100 µM | TGI [4]: > 100 µM | TGI [5]: > 100 µM | TGI [6]: > 100 µM | TGI [7]: > 100 µM | TGI [8]: > 100 µM | TGI [9]: > 100 µM | TGI [10]: > 100 µM | TGI [11]: > 100 µM | TGI [12]: > 100 µM | TGI [13]: > 100 µM | TGI [14]: > 100 µM | TGI [15]: > 100 µM | TGI [16]: > 100 µM | TGI [17]: > 100 µM | TGI [18]: > 100 µM | TGI [19]: > 100 µM | TGI [20]: > 100 µM | TGI [21]: > 100 µM | TGI [23]: > 100 µM | TGI [24]: > 100 µM | TGI [25]: > 100 µM | TGI [26]: > 100 µM | TGI [27]: > 100 µM | TGI [28]: > 100 µM | TGI [29]: > 100 µM | TGI [30]: > 100 µM | TGI [31]: > 100 µM | TGI [33]: > 100 µM | TGI [34]: > 100 µM | TGI [35]: > 100 µM | TGI [36]: > 100 µM | TGI [37]: > 100 µM | TGI [38]: > 100 µM | TGI [39]: > 100 µM | TGI [40]: > 100 µM | TGI [41]: > 100 µM | TGI [42]: > 100 µM | TGI [43]: > 100 µM | TGI [44]: > 100 µM | TGI [45]: > 100 µM | TGI [47]: > 100 µM | TGI [48]: > 100 µM | TGI [49]: 53.2 µM | TGI [50]: > 100 µM | TGI [51]: > 100 µM | TGI [52]: > 100 µM | TGI [53]: > 100 µM | TGI [54]: 96.1 µM | TGI [55]: > 100 µM | TGI [56]: > 100 µM | TGI [57]: > 100 µM | TGI [58]: > 100 µM | TGI [59]: > 100 µM

O=C(NC(OCc1ccccc1)(C(F)(F)F)C(F)(F)F)OCc1ccccc1
TGI [1]: 31.6 µM | TGI [2]: 28.5 µM | TGI [3]: 28.4 µM | TGI [4]: 30.1 µM | TGI [5]: 32.2 µM | TGI [6]: 29.9 µM | TGI [8]: 28.8 µM | TGI [9]: 31.1 µM | TGI [10]: 30.2 µM | TGI [11]: 28.6 µM | TGI [12]: 30.1 µM | TGI [13]: 31.5 µM | TGI [14]: 30.3 µM | TGI [15]: 26.8 µM | TGI [16]: 31.1 µM | TGI [17]: 27.6 µM | TGI [18]: 27.5 µM | TGI [19]: 29.4 µM | TGI [20]: 31.9 µM | TGI [21]: 31.6 µM | TGI [22]: 31.3 µM | TGI [23]: 31.4 µM | TGI [24]: 29.2 µM | TGI [25]: 29.3 µM | TGI [26]: 27.3 µM | TGI [27]: 29.6 µM | TGI [28]: 31.3 µM | TGI [29]: 27 µM | TGI [30]: 29 µM | TGI [31]: 27.1 µM | TGI [32]: 25.8 µM | TGI [33]: 26.7 µM | TGI [34]: 40.8 µM | TGI [35]: 41.1 µM | TGI [36]: 27.4 µM | TGI [37]: 28.7 µM | TGI [38]: 23.3 µM | TGI [39]: 26.7 µM | TGI [40]: 30.1 µM | TGI [41]: 28.5 µM | TGI [42]: 31 µM | TGI [43]: 32.3 µM | TGI [44]: 38.6 µM | TGI [45]: 33 µM | TGI [46]: 32.2 µM | TGI [47]: 29.2 µM | TGI [48]: 29.4 µM | TGI [49]: 25.3 µM | TGI [50]: 34.9 µM | TGI [51]: 20.9 µM | TGI [52]: 28.6 µM | TGI [53]: 36.8 µM | TGI [54]: 27.8 µM | TGI [55]: 26.3 µM | TGI [56]: 26.5 µM | TGI [57]: 28.7 µM | TGI [58]: 28.7 µM | TGI [59]: 27.7 µM
